Where a name gives a salt, the structure may show the parent alone. Read-outs that look alike come from different tables or passages of the source. Blank lines part the entries; values can stand above or below the molecule they belong to.
How the values were obtained:
CYP3A4 = CYP3A4 (Homo sapiens, UniProt P08684)
human CYP1A2 [1] = biological target: T1, human CYP1A2 (Homo sapiens, UniProt P05177); assay: biochemical
T1 sequence (P05177 1-516): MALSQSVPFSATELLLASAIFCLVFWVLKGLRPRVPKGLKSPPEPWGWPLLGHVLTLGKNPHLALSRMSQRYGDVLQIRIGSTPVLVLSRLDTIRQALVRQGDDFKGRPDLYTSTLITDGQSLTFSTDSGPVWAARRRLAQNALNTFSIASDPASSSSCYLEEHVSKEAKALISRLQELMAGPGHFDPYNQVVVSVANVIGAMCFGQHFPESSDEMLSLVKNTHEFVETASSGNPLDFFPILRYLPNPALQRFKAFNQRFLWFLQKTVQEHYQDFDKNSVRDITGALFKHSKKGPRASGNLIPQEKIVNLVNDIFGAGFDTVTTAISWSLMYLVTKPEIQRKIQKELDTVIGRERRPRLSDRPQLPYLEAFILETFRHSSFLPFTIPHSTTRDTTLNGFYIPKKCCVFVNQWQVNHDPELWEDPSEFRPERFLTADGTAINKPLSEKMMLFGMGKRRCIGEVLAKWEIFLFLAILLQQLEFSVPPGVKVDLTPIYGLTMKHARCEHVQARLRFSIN

human CYP2C9 [2] = biological target: T2, human CYP2C9 (Homo sapiens, UniProt P11712); assay: biochemical
human CYP2C19 [3] = biological target: T3, human CYP2C19 (Homo sapiens, UniProt P33261); assay: biochemical
human CYP2D6 [4] = biological target: T4, human CYP2D6 (Homo sapiens, UniProt P10635); assay: biochemical
human CYP1A2 [5] = biological target: T1, human CYP1A2; details: for CYP1A2 Efficacy (in parenthesis): human
human CYP2C9 [6] = biological target: T2, human CYP2C9; details: human
human CYP2C19 [7] = biological target: T3, human CYP2C19; details: for CYP2C19 Efficacy (in parenthesis): human
human CYP2D6 [8] = biological target: T4, human CYP2D6; details: human
[9] = biological target: Photinus pyralis (firefly) luciferase (Photinus pyralis, UniProt P08659); assay: biochemical; assay type: biochemical
[10] = CYP1A2 AC50 (half-maximal activity concentration)
[11] = CYP2C9 AC50 (half-maximal activity concentration)
[12] = CYP2C19 AC50 (half-maximal activity concentration)
[13] = CYP2D6 AC50 (half-maximal activity concentration)
[14] = CYP1A2 IC50 (half-maximal inhibitory concentration)
[15] = CYP2C9 IC50 (half-maximal inhibitory concentration)
[16] = CYP2C19 IC50 (half-maximal inhibitory concentration)
[17] = CYP2D6 IC50 (half-maximal inhibitory concentration)

T4 sequence (P10635 whole entry): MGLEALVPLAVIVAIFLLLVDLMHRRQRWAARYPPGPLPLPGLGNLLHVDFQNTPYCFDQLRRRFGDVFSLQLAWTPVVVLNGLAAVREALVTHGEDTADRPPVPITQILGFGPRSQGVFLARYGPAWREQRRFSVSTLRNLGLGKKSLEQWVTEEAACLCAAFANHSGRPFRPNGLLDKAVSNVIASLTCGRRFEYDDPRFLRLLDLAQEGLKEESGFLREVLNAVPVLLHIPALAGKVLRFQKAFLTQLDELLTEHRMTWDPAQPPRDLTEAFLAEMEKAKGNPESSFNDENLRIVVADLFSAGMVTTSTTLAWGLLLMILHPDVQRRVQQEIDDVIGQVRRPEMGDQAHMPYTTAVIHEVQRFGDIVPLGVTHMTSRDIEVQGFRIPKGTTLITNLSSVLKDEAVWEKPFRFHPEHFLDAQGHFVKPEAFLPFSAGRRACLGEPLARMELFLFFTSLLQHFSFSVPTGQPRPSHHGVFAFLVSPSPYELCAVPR
CYP3A4, sequence (P08684 whole entry): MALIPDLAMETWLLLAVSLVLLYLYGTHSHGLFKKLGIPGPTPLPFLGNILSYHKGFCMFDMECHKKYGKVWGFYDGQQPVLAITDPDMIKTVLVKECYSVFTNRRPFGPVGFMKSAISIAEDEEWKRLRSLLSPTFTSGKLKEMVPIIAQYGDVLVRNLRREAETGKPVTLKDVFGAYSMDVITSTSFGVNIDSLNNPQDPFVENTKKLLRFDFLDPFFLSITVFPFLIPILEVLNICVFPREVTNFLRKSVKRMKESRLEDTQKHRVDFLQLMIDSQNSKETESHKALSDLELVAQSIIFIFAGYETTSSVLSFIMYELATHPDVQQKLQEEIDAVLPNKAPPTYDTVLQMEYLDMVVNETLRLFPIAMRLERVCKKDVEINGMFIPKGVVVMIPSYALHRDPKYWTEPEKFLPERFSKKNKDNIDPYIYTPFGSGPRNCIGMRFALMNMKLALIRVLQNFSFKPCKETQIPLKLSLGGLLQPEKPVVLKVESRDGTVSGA
T2 sequence (P11712 whole entry): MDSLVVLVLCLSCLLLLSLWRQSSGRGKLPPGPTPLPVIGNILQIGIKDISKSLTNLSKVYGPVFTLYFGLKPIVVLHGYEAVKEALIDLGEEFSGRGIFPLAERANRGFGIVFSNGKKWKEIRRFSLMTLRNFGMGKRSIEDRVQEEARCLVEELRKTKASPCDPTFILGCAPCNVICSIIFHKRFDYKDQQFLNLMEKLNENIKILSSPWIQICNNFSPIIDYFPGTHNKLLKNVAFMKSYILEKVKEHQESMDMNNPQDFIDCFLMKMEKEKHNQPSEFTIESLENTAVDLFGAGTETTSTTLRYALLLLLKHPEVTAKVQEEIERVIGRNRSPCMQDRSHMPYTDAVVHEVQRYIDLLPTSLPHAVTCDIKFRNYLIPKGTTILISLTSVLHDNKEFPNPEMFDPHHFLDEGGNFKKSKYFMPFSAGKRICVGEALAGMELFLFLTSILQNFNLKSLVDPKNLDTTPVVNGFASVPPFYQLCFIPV
T3 sequence (P33261 whole entry): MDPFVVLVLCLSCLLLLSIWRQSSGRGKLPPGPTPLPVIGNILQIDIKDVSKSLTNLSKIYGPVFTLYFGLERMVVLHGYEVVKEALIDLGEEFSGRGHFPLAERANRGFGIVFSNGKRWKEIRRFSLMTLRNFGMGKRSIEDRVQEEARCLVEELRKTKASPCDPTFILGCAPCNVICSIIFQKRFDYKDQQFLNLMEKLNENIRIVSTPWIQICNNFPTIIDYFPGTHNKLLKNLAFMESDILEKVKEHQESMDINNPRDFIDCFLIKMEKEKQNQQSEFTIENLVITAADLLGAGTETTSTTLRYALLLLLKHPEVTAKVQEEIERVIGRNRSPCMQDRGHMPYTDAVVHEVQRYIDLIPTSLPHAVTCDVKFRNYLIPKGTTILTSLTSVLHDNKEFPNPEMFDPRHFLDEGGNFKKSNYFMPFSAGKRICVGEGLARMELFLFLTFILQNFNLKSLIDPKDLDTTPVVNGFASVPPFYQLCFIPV
Photinus pyralis (firefly) luciferase, sequence (P08659 whole entry): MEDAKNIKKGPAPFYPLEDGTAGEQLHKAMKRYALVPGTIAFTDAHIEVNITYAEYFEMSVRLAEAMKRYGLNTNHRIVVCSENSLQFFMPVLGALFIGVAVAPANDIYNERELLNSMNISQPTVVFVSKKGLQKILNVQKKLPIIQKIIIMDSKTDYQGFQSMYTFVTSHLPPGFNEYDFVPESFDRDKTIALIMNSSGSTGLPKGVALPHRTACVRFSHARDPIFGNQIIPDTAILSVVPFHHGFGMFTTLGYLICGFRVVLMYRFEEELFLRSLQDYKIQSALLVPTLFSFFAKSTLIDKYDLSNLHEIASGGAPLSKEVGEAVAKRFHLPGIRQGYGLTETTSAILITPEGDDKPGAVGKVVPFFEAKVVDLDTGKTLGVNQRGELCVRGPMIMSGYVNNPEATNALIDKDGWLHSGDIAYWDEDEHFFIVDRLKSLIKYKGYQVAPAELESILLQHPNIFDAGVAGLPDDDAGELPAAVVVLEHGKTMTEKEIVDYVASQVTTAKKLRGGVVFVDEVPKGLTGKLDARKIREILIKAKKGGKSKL

SMILES: O=C(c1ccccc1)c1ccc(O)cc1 [4-Hydroxybenzophenone]
CYP3A4 AC50 (half-maximal activity concentration) (CYP3A4): Inactive
AC50 (human CYP1A2 [1]; [10]): 29 µM
AC50 (human CYP2C9 [2]; [11]): 2.7 µM
AC50 (human CYP2C19 [3]; [12]): 31.7 µM
AC50 (human CYP2D6 [4]; [13]): 36.1 µM

CYP3A4 AC50 (half-maximal activity concentration) (CYP3A4): Inactive
AC50 (human CYP1A2 [1]): 43.2 µM
AC50 (human CYP2C9 [2]): 5.88 µM
AC50 (human CYP2C19 [3]): 4.75 µM
AC50 (human CYP2D6 [4]): 66.7 µM
SMILES: O=S(=O)(c1ccccc1)c1ccc(Cl)cc1 [4-Chlorophenyl phenyl sulfone]

SMILES: Clc1ccc(C(Cn2ccnc2)OCc2ccsc2Cl)c(Cl)c1 (stereo not drawn) [Tioconazole]
CYP1A2 Efficacy (in parenthesis) (human CYP1A2 [5]): 4.61 ± 0.27 (-94 ± 11) %
CYP2C9 Efficacy (in parenthesis) (human CYP2C9 [6]): 0.21 ± 0.09 (-104 ± 10) %
CYP2C19 Efficacy (in parenthesis) (human CYP2C19 [7]): 0.25 ± 0.09 (-140 ± 3) %
CYP2D6 Efficacy (in parenthesis) (human CYP2D6 [8]): 2.79 ± 0.58 (-109 ± 6) %
IC50 (human CYP1A2 [1]; [14]): 4.61 µM
IC50 (human CYP2C9 [2]; [15]): 0.21 µM
IC50 (human CYP2C19 [3]; [16]): 0.25 µM
IC50 (human CYP2D6 [4]; [17]): 2.79 µM

SMILES: CC(C)COCC(CN(Cc1ccccc1)c1ccccc1)N1CCCC1 (stereo not drawn) [Bepridil]
Luciferase IC50 [9]: Inactive
CYP1A2 IC50 (human CYP1A2 [5]): Inactive
IC50 (human CYP2D6 [4]; CYP2D6 IC50): 0.06 µM

SMILES: CC(C)[N+](C)(CCC(C(N)=O)(c1ccccc1)c1ccccc1)C(C)C [Isopropamide]
CYP1A2 Efficacy (in parenthesis) (human CYP1A2 [5]): 30.41 ± 7.39 (-70 ± 30) %
CYP2C9 Efficacy (in parenthesis) (human CYP2C9 [6]): 33.31 ± 14 (-72 ± 28) %
CYP2C19 Efficacy (in parenthesis) (human CYP2C19 [7]): 35.59 ± 11.39 (-61 ± 21) %
CYP2D6 Efficacy (in parenthesis) (human CYP2D6 [8]): 0.7 ± 0.32 (-99 ± 8) %
IC50 (human CYP1A2 [1]; [14]): 30.4 µM
IC50 (human CYP2C9 [2]; [15]): 33.3 µM
IC50 (human CYP2C19 [3]; [16]): 35.6 µM
IC50 (human CYP2D6 [4]; [17]): 0.7 µM

SMILES: Clc1ccc(Nc2nnc(Cc3ccncc3)c3ccccc23)cc1 [Vatalanib]
CYP1A2 Efficacy (in parenthesis) (human CYP1A2 [5]): 2.03 ± 0.52 (-97 ± 14) %
CYP2C9 Efficacy (in parenthesis) (human CYP2C9 [6]): 0.79 ± 0.66 (-96 ± 3) %
CYP2C19 Efficacy (in parenthesis) (human CYP2C19 [7]): 1.1 ± 0.95 (-157 ± 44) %
CYP2D6 Efficacy (in parenthesis) (human CYP2D6 [8]): 5.98 ± 9.87 (-107 ± 3) %
IC50 (human CYP1A2 [1]; CYP1A2 IC50 (half-maximal inhibitory concentration), mean ± standard deviation from three experiments, qHTS): 2.03 ± 0.52 µM
IC50 (human CYP2C9 [2]): 0.79 µM
IC50 (human CYP2C19 [3]; CYP2C19 IC50 (half-maximal inhibitory concentration), mean ± standard deviation from three experiments, qHTS): 1.1 ± 0.95 µM
IC50 (human CYP2D6 [4]): 5.98 µM

SMILES: N#C/C(=C1/SC[C@@H](c2ccc(Cl)cc2Cl)S1)n1ccnc1 [luliconazole, reference compound]
CYP1A2 Efficacy (in parenthesis) (human CYP1A2 [5]): 0.33 ± 0.09 (-91 ± 7) %
CYP2C9 Efficacy (in parenthesis) (human CYP2C9 [6]): 0.52 ± 0.12 (-109 ± 5) %
CYP2C19 Efficacy (in parenthesis) (human CYP2C19 [7]): 0.46 ± 0.08 (-137 ± 13) %
CYP2D6 Efficacy (in parenthesis) (human CYP2D6 [8]): 0.22 ± 0.03 (-105 ± 2) %
IC50 (human CYP1A2 [1]; [14]): 0.33 µM
IC50 (human CYP2C9 [2]; [15]): 0.52 µM
IC50 (human CYP2C19 [3]; [16]): 0.46 µM
IC50 (human CYP2D6 [4]; [17]): 0.22 µM

SMILES: N=C(N)N/N=C/c1c(Cl)cccc1Cl [Guanabenz]
CYP2C19 AC50 (half-maximal activity concentration) (human CYP2C19 [7]): Inactive
CYP3A4 AC50 (half-maximal activity concentration) (CYP3A4): Inactive
AC50 (human CYP1A2 [1]; [10]): 14.4 µM
AC50 (human CYP2C9 [2]; [11]): 37.7 µM
AC50 (human CYP2D6 [4]; [13]): 13.8 µM

SMILES: O=C1N(c2ccccc2)c2ccccc2C1(Cc1ccncc1)Cc1ccncc1 [Linopirdine]
CYP1A2 Efficacy (in parenthesis) (human CYP1A2 [5]): 24.14 ± 9.56 (-50 ± 8) %
CYP2C9 Efficacy (in parenthesis) (human CYP2C9 [6]): 3.04 ± 0.74 (-95 ± 5) %
CYP2C19 Efficacy (in parenthesis) (human CYP2C19 [7]): 1.71 ± 1.07 (-136 ± 7) %
CYP2D6 Efficacy (in parenthesis) (human CYP2D6 [8]): 20.69 ± 9.02 (-61 ± 27) %
IC50 (human CYP1A2 [1]): 24.1 ± 9.56 µM
IC50 (human CYP2C9 [2]): 3.04 ± 0.74 µM
IC50 (human CYP2C19 [3]): 1.71 ± 1.07 µM
IC50 (human CYP2D6 [4]): 20.7 ± 9.02 µM

SMILES: CCCC(C(=O)OCCN(CC)CC)(c1ccccc1)c1ccccc1 [Proadifen hydrochloride]
Luciferase IC50 [9]: Inactive
CYP1A2 IC50 (human CYP1A2 [5]): Inactive
IC50 (human CYP2C9 [2]; CYP2C9 IC50): 12.1 µM
IC50 (human CYP2C19 [3]; CYP2C19 IC50): 19.1 µM
IC50 (human CYP2D6 [4]; CYP2D6 IC50): 0.2 µM

SMILES: CCCN(CCc1cccs1)[C@H]1CCc2c(O)cccc2C1 [Rotigotine]
CYP1A2 Efficacy (in parenthesis) (human CYP1A2 [5]): 31.04 ± 3.57 (-46 ± 10) %
CYP2C9 Efficacy (in parenthesis) (human CYP2C9 [6]): 16.12 ± 1.09 (-56 ± 2) %
CYP2C19 Efficacy (in parenthesis) (human CYP2C19 [7]): 2.55 ± 0.17 (-115 ± 10) %
CYP2D6 Efficacy (in parenthesis) (human CYP2D6 [8]): 0.4 ± 0.09 (-102 ± 0) %
AC50 (human CYP1A2 [1]): 31 ± 3.57 µM
IC50 (human CYP1A2 [1]): 31 ± 3.57 µM
AC50 (human CYP2C9 [2]): 16.1 ± 1.09 µM
IC50 (human CYP2C9 [2]): 16.1 ± 1.09 µM
AC50 (human CYP2C19 [3]): 2.55 ± 0.17 µM
IC50 (human CYP2C19 [3]): 2.55 ± 0.17 µM
AC50 (human CYP2D6 [4]): 0.4 ± 0.09 µM
IC50 (human CYP2D6 [4]): 0.4 ± 0.09 µM

SMILES: O=c1[nH]sc2ccccc12 [1,2-Benzisothiazolin-3-one]
CYP3A4 AC50 (half-maximal activity concentration) (CYP3A4): Inconclusive inhibitor
AC50 (human CYP1A2 [1]; [10]): 31.7 µM
AC50 (human CYP2C9 [2]; [11]): 34.3 µM
AC50 (human CYP2C19 [3]; [12]): 2.38 µM
AC50 (human CYP2D6 [4]; [13]): 11.3 µM

SMILES: CC(NCCC(c1ccccc1)c1ccccc1)c1ccccc1 (stereo not drawn) [Fendiline hydrochloride]
Luciferase IC50 [9]: Inactive
CYP1A2 IC50 (human CYP1A2 [5]): Inactive
IC50 (human CYP2C9 [2]; CYP2C9 IC50): 15.5 µM
IC50 (human CYP2C19 [3]; CYP2C19 IC50): 5.65 µM
IC50 (human CYP2D6 [4]; CYP2D6 IC50): 0.23 µM

SMILES: Clc1ccc(C(Cn2ccnc2)OCc2ccc(Sc3ccccc3)cc2)c(Cl)c1 (stereo not drawn) [Fenticonazole nitrate]
CYP1A2 Efficacy (in parenthesis) (human CYP1A2 [5]): 16.12 ± 1.09 (-89 ± 8) %
CYP2C9 Efficacy (in parenthesis) (human CYP2C9 [6]): 2.99 ± 0.41 (-103 ± 6) %
CYP2C19 Efficacy (in parenthesis) (human CYP2C19 [7]): 2.65 ± 0.17 (-137 ± 20) %
CYP2D6 Efficacy (in parenthesis) (human CYP2D6 [8]): 0.37 ± 0.02 (-82 ± 4) %
IC50 (human CYP1A2 [1]): 16.1 ± 1.09 µM
IC50 (human CYP2C9 [2]): 2.99 ± 0.41 µM
IC50 (human CYP2C19 [3]): 2.65 ± 0.17 µM
IC50 (human CYP2D6 [4]): 0.37 ± 0.02 µM
